Organism: Rattus norvegicus
Test: Open TG-GATES - Regimen: Daily Repeat
Assay type: toxicity, organism-based, Sprague-Dawley
Parameters: regimen Daily Repeat, gender Male, age 6 weeks
Conditions: in vivo, po, route gavage; for gamma-GTP / A/G / ALP / ALT / AST / BUN / CRE / Ca / Cl / DBIL / GLC / IP / K / LDH / Na / PL / RALB / TBIL / TC / TG / TP: tissue Plasma; for APTT / Bas / Eos / Fbg / Hb / Ht / Lym / MCH / MCHC / MCV / Mono / Neu / PT / Plat / RBC / Ret / WBC: tissue Blood; for KIDNEY_L / KIDNEY_R / KIDNEY_TOTAL: tissue Kidney; for LIVER: tissue Liver
[1] = 3 mg/kg, […], dose level Low, time 28 day
[2] = 10 mg/kg, 72 h, dose level Middle, time 3 day
[3] = 10 mg/kg, […], dose level Middle, time 7 day
[4] = 10 mg/kg, […], dose level Middle, time 14 day
[5] = 10 mg/kg, […], dose level Middle, time 28 day

CCN(CC)N=O [N-NITROSODIETHYLAMINE]
gamma-GTP (3 mg/kg, […], dose level Low, time 14 day): 1.2 IU/L
A/G [1]: 1.3
ALP [1]: 685.6 IU/L
ALT [1]: 37.6 IU/L
AST [1]: 69.4 IU/L
BUN [1]: 15.6 mg/dL
CRE [1]: 0.5 mg/dL
Ca [1]: 10.2 mg/dL
Cl [1]: 103.2 meq/L
DBIL [1]: 0.1 mg/dL
GLC [1]: 203.8 mg/dL
IP [1]: 7 mg/dL
K [1]: 3.7 meq/L
LDH [1]: 198.4 IU/L
Na [1]: 141.6 meq/L
PL [1]: 142.2 mg/dL
RALB [1]: 3.4 g/dL
TBIL [1]: 0.2 mg/dL
TC [1]: 72 mg/dL
TG [1]: 109.8 mg/dL
TP [1]: 6 g/dL
gamma-GTP [1]: 1.6 IU/L
TERMINAL_BW [2]: 232.4 g
APTT [2]: 17.9 s
Bas [2]: 0.4%
Eos [2]: 1%
Fbg [2]: 224.4 mg/dL
Hb [2]: 13.7 g/dL
Ht [2]: 39.6%
Lym [2]: 80.6%
MCH [2]: 21.4 pg
MCHC [2]: 34.5%
MCV [2]: 62 fL
Mono [2]: 1.8%
Neu [2]: 15.6%
PT [2]: 11.9 s
Plat [2]: 144.5 x10_4/uL
RBC [2]: 639 x10_4/ul
Ret [2]: 5.5%
WBC [2]: 81.6 x10_2/uL
KIDNEY_L [2]: 1 g
KIDNEY_R [2]: 1 g
KIDNEY_TOTAL [2]: 2 g
LIVER [2]: 9.9 g
A/G [2]: 1.5
ALP [2]: 927.8 IU/L
ALT [2]: 33.6 IU/L
AST [2]: 69 IU/L
BUN [2]: 14.4 mg/dL
CRE [2]: 0.4 mg/dL
Ca [2]: 10.6 mg/dL
Cl [2]: 103.4 meq/L
DBIL [2]: 0.09 mg/dL
GLC [2]: 186.6 mg/dL
IP [2]: 7.5 mg/dL
K [2]: 4.1 meq/L
LDH [2]: 186.8 IU/L
Na [2]: 140.8 meq/L
PL [2]: 126.4 mg/dL
RALB [2]: 3.3 g/dL
TBIL [2]: 0.1 mg/dL
TC [2]: 69 mg/dL
TG [2]: 75 mg/dL
TP [2]: 5.5 g/dL
gamma-GTP [2]: 1.4 IU/L
TERMINAL_BW [3]: 255.8 g
TERMINAL_BW [4]: 288.9 g
TERMINAL_BW [5]: 349 g
APTT [3]: 19.3 s
Bas [3]: 0.8%
Eos [3]: 1%
Fbg [3]: 210.6 mg/dL
Hb [3]: 14.7 g/dL
Ht [3]: 41.7%
Lym [3]: 80%
MCH [3]: 21.2 pg
MCHC [3]: 35.2%
MCV [3]: 60.3 fL
Mono [3]: 2.4%
Neu [3]: 15.8%
PT [3]: 12.3 s
Plat [3]: 139.2 x10_4/uL
RBC [3]: 693.4 x10_4/ul
Ret [3]: 3.4%
WBC [3]: 94.2 x10_2/uL
APTT [4]: 18.7 s
Bas [4]: 1%
Eos [4]: 1.2%
Fbg [4]: 212 mg/dL
Hb [4]: 16 g/dL
Ht [4]: 44.8%
Lym [4]: 75.2%
MCH [4]: 21.4 pg
MCHC [4]: 35.6%
MCV [4]: 60.2 fL
Mono [4]: 2.6%
Neu [4]: 20%
PT [4]: 12.8 s
Plat [4]: 135.1 x10_4/uL
RBC [4]: 745.2 x10_4/ul
Ret [4]: 3%
WBC [4]: 125 x10_2/uL
APTT [5]: 17.1 s
Bas [5]: 0.6%
Eos [5]: 0.8%
Fbg [5]: 197.8 mg/dL
Hb [5]: 16.8 g/dL
Ht [5]: 45.5%
Lym [5]: 77.4%
MCH [5]: 20.6 pg
MCHC [5]: 36.9%
MCV [5]: 55.9 fL
Mono [5]: 2.4%
Neu [5]: 18%
PT [5]: 12.7 s
Plat [5]: 115.5 x10_4/uL
RBC [5]: 815 x10_4/ul
Ret [5]: 1.9%
WBC [5]: 126.6 x10_2/uL
KIDNEY_L [3]: 1 g
KIDNEY_R [3]: 1 g
KIDNEY_TOTAL [3]: 2.1 g
KIDNEY_L [4]: 1.1 g
KIDNEY_R [4]: 1.1 g
KIDNEY_TOTAL [4]: 2.3 g
KIDNEY_L [5]: 1.2 g
KIDNEY_R [5]: 1.2 g
KIDNEY_TOTAL [5]: 2.3 g
LIVER [3]: 10.2 g
LIVER [4]: 9.6 g
LIVER [5]: 9.3 g
A/G [3]: 1.7
ALP [3]: 860.8 IU/L
ALT [3]: 36.2 IU/L
AST [3]: 78 IU/L
BUN [3]: 13.6 mg/dL
CRE [3]: 0.4 mg/dL
Ca [3]: 10.4 mg/dL
Cl [3]: 104.2 meq/L
DBIL [3]: 0.1 mg/dL
GLC [3]: 190.2 mg/dL
IP [3]: 7.4 mg/dL
K [3]: 4 meq/L
LDH [3]: 236.4 IU/L
Na [3]: 141.2 meq/L
PL [3]: 131 mg/dL
RALB [3]: 3.3 g/dL
TBIL [3]: 0.2 mg/dL
TC [3]: 71.4 mg/dL
TG [3]: 59.2 mg/dL
TP [3]: 5.3 g/dL
gamma-GTP [3]: 1.2 IU/L
A/G [4]: 1.6
ALP [4]: 1173 IU/L
ALT [4]: 52.8 IU/L
AST [4]: 91.4 IU/L
BUN [4]: 15 mg/dL
CRE [4]: 0.5 mg/dL
Ca [4]: 10.5 mg/dL
Cl [4]: 101.6 meq/L
DBIL [4]: 0.1 mg/dL

— ChEMBL document CHEMBL3885861, “Open TG-GATES”
